The results in this text go back to patent US10988440B2, “FTO inhibitors” (National Institute of Biological Sciences, Beijing, priority 2015, dated 2021).

Data set [1] deals with T1, COMT enzyme (Homo sapiens, UniProt P21964).
T1 construct: COMT (μM); other: at 200 nM; other: at 50 nM; The reaction system contains 1U COMT enzyme, test article, 4 μM Esculetin, 0.6 mM AdoMet, 50 mM K3PO4, and 10 mM MgCl2
T1 sequence (P21964 1-271): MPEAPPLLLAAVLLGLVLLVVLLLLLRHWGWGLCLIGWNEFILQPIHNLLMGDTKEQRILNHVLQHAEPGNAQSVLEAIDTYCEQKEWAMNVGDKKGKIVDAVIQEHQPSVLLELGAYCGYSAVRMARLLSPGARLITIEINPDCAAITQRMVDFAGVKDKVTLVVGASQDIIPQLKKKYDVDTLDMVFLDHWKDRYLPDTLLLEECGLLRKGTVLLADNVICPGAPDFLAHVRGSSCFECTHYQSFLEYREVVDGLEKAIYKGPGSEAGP
The data set is described as follows: COMT inhibition assay (reaction kinetic model, esculetin fluorescence). The data set is classed as biochemical. The conditions noted are these: for inhibition at 0.05 µM: read-out: COMT inhibition at 50 nM; for inhibition at 0.2 µM: read-out: COMT inhibition at 200 nM.

A short description of data set [2]: Rat liver microsome stability assay. The data set is classed as in vitro ADME. The settings on record: liver microsomes, pH 7.4, rat liver microsome 1 mg/ml, test compound 2 μM, NADPH 1 mM, 37° C. For orientation: Liver microsomes are vesicles of endoplasmic reticulum, rich in cytochrome P450 enzymes.
A further data set addresses FTO (Homo sapiens, UniProt Q9C0B1). Description: demethylation reaction catalyzed by FTO (enzymatic inhibition, HPLC-MS/MS of N6-mA and A). The data set is classed as biochemical.
The subject of data set [3] is COMT enzyme. The data set is described as follows: COMT inhibition assay (reaction kinetic model, esculetin fluorescence). The data set is classed as biochemical. The settings on record: normalized COMT/FTO value: (COMTcompound/FTOcompound)/(COMTentacapone/FTOentacapone).
Setting [4] is: read-out: Rat Liver Microsome CLint (μL/min/mg protein).
Where [5] appears, read: read-out: Rat Liver Microsome T½.
Where [6] appears, read: exemplary IC50 data of representative compounds, read-out: Enzymatic inhibition (IC50).
[7] abbreviates: selectivity table, read-out: FTO.

Where two headings read alike, the source gives them in different places.

FTO, sequence (Q9C0B1 whole entry): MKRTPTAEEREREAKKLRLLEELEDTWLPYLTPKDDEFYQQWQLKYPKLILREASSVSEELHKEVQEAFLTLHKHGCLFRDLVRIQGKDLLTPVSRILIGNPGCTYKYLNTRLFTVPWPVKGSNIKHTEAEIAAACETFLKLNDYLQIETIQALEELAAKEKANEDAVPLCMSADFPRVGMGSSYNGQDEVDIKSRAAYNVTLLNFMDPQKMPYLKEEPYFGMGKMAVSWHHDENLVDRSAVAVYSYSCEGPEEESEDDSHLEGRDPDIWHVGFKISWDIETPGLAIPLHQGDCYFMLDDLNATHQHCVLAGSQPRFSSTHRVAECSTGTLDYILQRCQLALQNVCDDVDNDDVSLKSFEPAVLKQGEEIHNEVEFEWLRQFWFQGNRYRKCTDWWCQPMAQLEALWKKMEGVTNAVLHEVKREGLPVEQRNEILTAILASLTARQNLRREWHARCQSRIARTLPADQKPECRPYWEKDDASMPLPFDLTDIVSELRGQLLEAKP

Take `N#CC(=Cc1cc(O)c(O)c([N+](=O)[O-])c1)c1ccccn1` (stereo in doubt) [Compound 315, (E)-3-(3,4-dihydroxy-5-nitrophenyl)-2-(pyridin-2-yl)acrylonitrile]: on COMT enzyme [1], the inhibition at 0.05 µM came to 19% and the inhibition at 0.2 µM is 70%. In addition, the microsomal CLint at 1 h, 2 µM in data set [2] (setting [4]) is 310 µL/min/mg. Moreover, the half-life at 1 h, 2 µM in data set [2] (setting [5]) came to 0.0373 h. The IC50 on FTO (setting [6]) is around 1000 nM. Also, the IC50 on FTO (setting [7]) amounted to 1000 nM.

Regarding `N#C/C(=C\c1cc(O)c(O)c([N+](=O)[O-])c1)C(=O)Nc1nccs1` [Compound 331, (E)-2-cyano-3-(3,4-dihydroxy-5-nitrophenyl)-N-(thiazol-2-yl)acrylamide], the inhibition at 0.05 µM at COMT enzyme [1] came to 25%. Also, the inhibition at 0.2 µM on COMT enzyme [1] is 54%. Moreover, in data set [2] (setting [4]), the microsomal CLint at 1 h, 2 µM came to 7.4 µL/min/mg. Further, the half-life at 1 h, 2 µM in data set [2] (setting [5]) is 1.56 h. Further, the values for the IC50 on FTO (setting [6]) and on FTO (setting [7]) were around 1000 nM and 1000 nM, respectively.

Consider `CCN(CC)C(=O)C(C#N)=C(NC)c1cc(O)c(O)c([N+](=O)[O-])c1` [Compound 347M, 2-cyano-3-(3,4-dihydroxy-5-nitrophenyl)-N,N-diethyl-3-(methylamino)acrylamide], for which the “Selectivity Index*” value in the data set on COMT enzyme [3] turned out to be 8.10. The IC50 on COMT enzyme [1] is 162 nM; at FTO (setting [6]) it was around 1000 nM; at FTO (setting [7]), 1000 nM. Further, the microsomal CLint at 2 μM in data set [2] (setting [4]) was 12.2 µL/min/mg. Further, the half-life at 2 μM in data set [2] (setting [5]) came to 0.947 h.

Consider `CCN(CC)C(=O)/C(C#N)=C(\N)c1cc(O)c(O)c([N+](=O)[O-])c1` [Compound 347N], for which the “Selectivity Index*” value with COMT enzyme [3] was determined as 21.40. Besides, the IC50 at COMT enzyme [1] was 214 nM; at FTO (setting [6]), below 1000 nM; on FTO (setting [7]), 500 nM. Also, the microsomal CLint at 1 h, 2 µM in data set [2] (setting [4]) stood at 4.9 µL/min/mg. Also, the half-life at 1 h, 2 µM in data set [2] (setting [5]) stood at 2.35 h.

Regarding `N#C/C(=C(/O)c1cc(O)c(O)c([N+](=O)[O-])c1)c1ccccn1` [Compound 351, 3-(3,4-dihydroxy-5-nitrophenyl)-3-oxo-2-(pyridin-2-yl)propanenitrile], on COMT enzyme [1], the inhibition at 0.05 µM was 33% and the inhibition at 0.2 µM was found to be 80%. Also, the microsomal CLint at 1 h, 2 µM in data set [2] (setting [4]) turned out to be 9 µL/min/mg. Further, in data set [2] (setting [5]), the half-life at 1 h, 2 µM is 1.28 h. Also, the IC50 on FTO (setting [6]) is below 1000 nM. Besides, the IC50 at FTO (setting [7]) amounted to 750 nM.

In the case of `N#C/C(C(=O)Nc1nccs1)=C(/O)c1cc(O)c(O)c([N+](=O)[O-])c1` [Compound 374, 2-cyano-3-(3,4-dihydroxy-5-nitrophenyl)-3-oxo-N-(thiazol-2-yl)propanamide], the “Selectivity Index*” value with COMT enzyme [3] was found to be 6.50. For the same molecule, the IC50 is 65 nM against COMT enzyme [1], below 1000 nM on FTO (setting [6]) and 500 nM on FTO (setting [7]). Also, the microsomal CLint at 1 h, 2 µM in data set [2] (setting [4]) was determined as 0.6 µL/min/mg. For the same molecule, the half-life at 1 h, 2 µM in data set [2] (setting [5]) came to 19.2 h.

Regarding `N#C/C(=C\c1cc(O)c(O)c([N+](=O)[O-])c1)c1nccs1` [Compound 390], on COMT enzyme [1], the inhibition at 0.05 µM was 12%. Also, the inhibition at 0.2 µM at COMT enzyme [1] turned out to be 36%. Further, in data set [2] (setting [4]), the microsomal CLint at 1 h, 2 µM came out at 266 µL/min/mg. The half-life at 1 h, 2 µM in data set [2] (setting [5]) was determined as 0.0435 h. In addition, the IC50 at FTO (setting [6]) is around 1000 nM; at FTO (setting [7]), 1000 nM.

In the case of `N#C/C(=C\c1cc(O)c(O)c([N+](=O)[O-])c1)c1ccncn1` [Compound 395, 3-(3,4-dihydroxy-5-nitrophenyl)-2-(pyrimidin-4-yl)acrylonitrile], on COMT enzyme [1], the inhibition at 0.05 µM stood at 36% and the inhibition at 0.2 µM is 74%. Further, the microsomal CLint at 1 h, 2 µM in data set [2] (setting [4]) is 12.6 µL/min/mg. In addition, the half-life at 1 h, 2 µM in data set [2] (setting [5]) stood at 0.917 h. Moreover, the IC50 on FTO (setting [6]) was below 1000 nM. In addition, the IC50 at FTO (setting [7]) came to 500 nM.

For `N#C/C(=C\c1cc(O)c(O)c([N+](=O)[O-])c1)c1cnccn1` [Compound 396], the “Selectivity Index*” value with COMT enzyme [3] stood at 21.60. In addition, the values for the IC50 on COMT enzyme [1], on FTO (setting [6]) and on FTO (setting [7]) were 108 nM, below 1000 nM and 250 nM, respectively. In data set [2] (setting [4]), the microsomal CLint at 1 h, 2 µM is 20.9 µL/min/mg. Further, the half-life at 1 h, 2 µM in data set [2] (setting [5]) turned out to be 0.553 h.

Take `N#C/C(=C(/O)c1cc(O)c(O)c([N+](=O)[O-])c1)c1nccs1` [Compound 503, 3-(3,4-dihydroxy-5-nitrophenyl)-3-oxo-2-(thiazol-2-yl)propanenitrile]: on COMT enzyme [1], the inhibition at 0.05 µM is 9% and the inhibition at 0.2 µM was found to be 24%. In addition, the microsomal CLint at 1 h, 2 µM in data set [2] (setting [4]) came out at 0.5 µL/min/mg. For the same molecule, the half-life at 1 h, 2 µM in data set [2] (setting [5]) turned out to be 23.1 h. Also, the IC50 at FTO (setting [6]) is around 1000 nM. Moreover, the IC50 at FTO (setting [7]) is 1500 nM.

Regarding `N#C/C(=C(/O)c1cc(O)c(O)c([N+](=O)[O-])c1)c1cnccn1` [Compound 523, 3-(3,4-dihydroxy-5-nitrophenyl)-3-hydroxy-2-(pyrazin-2-yl)acrylonitrile], in the data set with COMT enzyme [3], the “Selectivity Index*” value is recorded as 10.50. Further, the IC50 against COMT enzyme [1] is 105 nM; at FTO (setting [6]), below 1000 nM; on FTO (setting [7]) it was 500 nM. The microsomal CLint at 1 h, 2 µM in data set [2] (setting [4]) came out at 2.9 µL/min/mg. The half-life at 1 h, 2 µM in data set [2] (setting [5]) worked out at 3.98 h.

Take `N#C/C(=C(/O)c1cc(O)c(O)c([N+](=O)[O-])c1)c1ccncn1` [Compound 525, (E)-3-(3,4-dihydroxy-5-nitrophenyl)-3-hydroxy-2-(pyrimidin-4-yl)acrylonitrile]: at COMT enzyme [1], the inhibition at 0.05 µM came out at 39% and the inhibition at 0.2 µM was found to be 74%. The microsomal CLint at 1 h, 2 µM in data set [2] (setting [4]) was 10.9 µL/min/mg. Also, in data set [2] (setting [5]), the half-life at 1 h, 2 µM amounted to 1.06 h. In addition, the IC50 on FTO (setting [6]) was below 1000 nM. For the same molecule, the IC50 at FTO (setting [7]) amounted to 500 nM.

Consider `N#C/C(=C\c1cc(O)c(O)c([N+](=O)[O-])c1)c1cnc(C(=O)O)cn1` [Compound 655, (Z)-5-(1-cyano-2-(3,4-dihydroxy-5-nitrophenyl)vinyl)pyrazine-2-carboxylic Acid], for which the “Selectivity Index*” value in the data set with COMT enzyme [3] is listed as 4.00. The IC50 against COMT enzyme [1] is 24 nM; on FTO (setting [6]), below 1000 nM; on FTO (setting [7]), 300 nM. Moreover, in data set [2] (setting [4]), the microsomal CLint at 1 h, 2 µM worked out at 1.6 µL/min/mg. Further, the half-life at 1 h, 2 µM in data set [2] (setting [5]) stood at 7.22 h.

As for `N#C/C(C(=O)N1CCCCC1)=C(/O)c1cc(O)c(O)c([N+](=O)[O-])c1` [Compound 661, (Z)-3-(3,4-dihydroxy-5-nitrophenyl)-3-hydroxy-2-(piperidine-1-carbonyl)acrylonitrile], the inhibition at 0.05 µM at COMT enzyme [1] is 12%. For the same molecule, at COMT enzyme [1], the inhibition at 0.2 µM is 26%. For the same molecule, the microsomal CLint at 1 h, 2 µM in data set [2] (setting [4]) is 2.2 µL/min/mg. Also, the half-life at 1 h, 2 µM in data set [2] (setting [5]) came to 5.25 h. The IC50 at FTO (setting [6]) was around 1000 nM; on FTO (setting [7]), 1000 nM.

With `N#C/C(C(=O)N1CCCCC1)=C(/N)c1cc(O)c(O)c([N+](=O)[O-])c1` [Compound 661N, 3-amino-3-(3,4-dihydroxy-5-nitrophenyl)-2-(piperidine-1-carbonyl)acrylonitrile], at COMT enzyme [1], the inhibition at 0.05 µM was determined as 35% and the inhibition at 0.2 µM is 64%. The microsomal CLint at 1 h, 2 µM in data set [2] (setting [4]) was 10.3 µL/min/mg. The half-life at 1 h, 2 µM in data set [2] (setting [5]) is 1.12 h. Moreover, the IC50 on FTO (setting [6]) is below 1000 nM. The IC50 on FTO (setting [7]) was determined as 750 nM.

For `N#C/C(=C\c1cc(O)c(O)c([N+](=O)[O-])c1)C(=O)N1CCC1` [Compound 687], the results for the IC50 against COMT enzyme [1], at FTO (setting [6]) and on FTO (setting [7]) were 33 nM, below 1000 nM and 1000 nM, respectively. Also, the microsomal CLint at 1 h, 2 µM in data set [2] (setting [4]) turned out to be 284 µL/min/mg. In addition, in data set [2] (setting [5]), the half-life at 1 h, 2 µM was 0.0407 h.

In the case of `N#C/C(=C(/O)c1cc(O)c(O)c([N+](=O)[O-])c1)c1cnc(C(=O)O)cn1` [Compound 697, (E)-5-(1-cyano-2-(3,4-dihydroxy-5-nitrophenyl)-2-hydroxyvinyl) pyrazine-2-carboxylic Acid], the inhibition at 0.05 µM on COMT enzyme [1] was -3%. Also, at COMT enzyme [1], the inhibition at 0.2 µM was determined as 33%. In data set [2] (setting [4]), the microsomal CLint at 1 h, 2 µM was found to be 1.1 µL/min/mg. The half-life at 1 h, 2 µM in data set [2] (setting [5]) was found to be 10.5 h. In addition, the IC50 was below 1000 nM at FTO (setting [6]) and 750 nM at FTO (setting [7]).

Consider `N#C/C(C(=O)N1CCC1)=C(/O)c1cc(O)c(O)c([N+](=O)[O-])c1` [Compound 701, (Z)-2-(azetidine-1-carbonyl)-3-(3,4-dihydroxy-5-nitrophenyl)-3-hydroxyacrylonitrile], for which the “Selectivity Index*” value in the data set on COMT enzyme [3] came out at 237.33. Besides, the IC50 at COMT enzyme [1] was 3560 nM; at FTO (setting [6]) it was below 1000 nM; at FTO (setting [7]) it was 750 nM.

By inhibition is commonly meant the change of the read-out against control, counted positive when it falls.
